# Laboratory results published in ChEMBL document CHEMBL1201862, “PubChem BioAssay data set” (2004).
#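 Tested at 5 concentrations; 48 h exposure; 96-well plates; endpoints linearly interpolated, else capped at highest concentration. GI50 = concentration required for 50% inhibition of growth.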 Activity calls are given as the source filed them. Rule as the data show it: active = GI50 up to about 1.1 µM and inactive = higher.
# Key:
# Assay in all cases: NCI anticancer screen, dose series, 48 h
# OVCAR-5 = system: OVCAR-5
# RXF 393 = system: RXF 393
# U-251 = system: U-251
# NCI-H522 = system: NCI-H522
# MDA-MB-435 = system: MDA-MB-435
# IGROV-1 = system: IGROV-1
# ACHN = system: ACHN
# DU-145 = system: DU-145
# HOP-62 = system: HOP-62
# CCRF-CEM = system: CCRF-CEM
# MOLT-4 = system: MOLT-4
# UACC-257 = system: UACC-257
# T47D = system: T47D
# SW-620 = system: SW-620
# A549 = system: A549
# HT-29 = system: HT-29
# SR = system: SR
# NCI/ADR-RES = system: NCI/ADR-RES
# TK-10 = system: TK-10
# SNB-19 = system: SNB-19
# 786-0 = system: 786-0
# MCF7 = system: MCF7
# SNB-75 = system: SNB-75
# OVCAR-4 = system: OVCAR-4
# M14 = system: M14
# KM12 = system: KM12
# SK-MEL-2 = system: SK-MEL-2
# NCI-H226 = system: NCI-H226
# NCI-H23 = system: NCI-H23
# MDA-N = system: MDA-N
# Hs-578T = system: Hs-578T
# HOP-92 = system: HOP-92
# BT-549 = system: BT-549
# LOX IMVI = system: LOX IMVI
# UO-31 = system: UO-31
# PC-3 = system: PC-3
# K562 = system: K562
# NCI-H460 = system: NCI-H460
# HL-60 = system: HL-60
# MDA-MB-231 = system: MDA-MB-231
# SF-295 = system: SF-295
# Malme-3M = system: Malme-3M
# UACC-62 = system: UACC-62
# COLO 205 = system: COLO 205
# HCC 2998 = system: HCC 2998
# CAKI-1 = system: CAKI-1
# A498 = system: A498
# SF-539 = system: SF-539
# SK-OV-3 = system: SK-OV-3
# SF-268 = system: SF-268
# OVCAR-3 = system: OVCAR-3
# EKVX = system: EKVX
# HCT-15 = system: HCT-15
# SK-MEL-28 = system: SK-MEL-28
# SN12C = system: SN12C
# HCT-116 = system: HCT-116
# SK-MEL-5 = system: SK-MEL-5
# OVCAR-8 = system: OVCAR-8
compound,measurement,setting,value
CCCNc1[nH]c(C(C)=O)c(N)c1C(=S)Nc1ccccc1,GI50,OVCAR-5,68.9 µM (inactive)
same,GI50,RXF 393,20.4 µM (inactive)
same,GI50,U-251,31.7 µM (inactive)
same,GI50,NCI-H522,4.15 µM (inactive)
same,GI50,MDA-MB-435,21 µM (inactive)
same,GI50,IGROV-1,0.507 µM (active)
same,GI50,ACHN,40.8 µM (inactive)
same,GI50,DU-145,54.7 µM (inactive)
same,GI50,HOP-62,42 µM (inactive)
same,GI50,CCRF-CEM,46.5 µM (inactive)
same,GI50,MOLT-4,69.2 µM (inactive)
same,GI50,UACC-257,30.1 µM (inactive)
same,GI50,T47D,47.1 µM (inactive)
same,GI50,SW-620,> 100 µM (inactive)
same,GI50,A549,33.3 µM (inactive)
same,GI50,HT-29,20 µM (inactive)
same,GI50,SR,17.2 µM (inactive)
same,GI50,NCI/ADR-RES,28.7 µM (inactive)
same,GI50,TK-10,39.1 µM (inactive)
same,GI50,SNB-19,38.4 µM (inactive)
same,GI50,786-0,26.4 µM (inactive)
same,GI50,MCF7,19.2 µM (inactive)
same,GI50,SNB-75,37 µM (inactive)
same,GI50,OVCAR-4,23.1 µM (inactive)
same,GI50,M14,19.4 µM (inactive)
same,GI50,KM12,34 µM (inactive)
same,GI50,SK-MEL-2,9.2 µM (inactive)
same,GI50,NCI-H226,21.7 µM (inactive)
same,GI50,NCI-H23,41 µM (inactive)
same,GI50,MDA-N,41.4 µM (inactive)
same,GI50,Hs-578T,39.3 µM (inactive)
same,GI50,HOP-92,34 µM (inactive)
same,GI50,BT-549,24.2 µM (inactive)
same,GI50,LOX IMVI,23.3 µM (inactive)
same,GI50,UO-31,0.782 µM (active)
same,GI50,PC-3,> 100 µM (inactive)
same,GI50,K562,43.4 µM (inactive)
same,GI50,NCI-H460,33.9 µM (inactive)
same,GI50,HL-60,37.7 µM (inactive)
same,GI50,MDA-MB-231,36.6 µM (inactive)
same,GI50,SF-295,43.3 µM (inactive)
same,GI50,Malme-3M,28 µM (inactive)
same,GI50,UACC-62,17.9 µM (inactive)
same,GI50,COLO 205,31.6 µM (inactive)
same,GI50,HCC 2998,> 100 µM (inactive)
same,GI50,CAKI-1,46.8 µM (inactive)
same,GI50,A498,27.4 µM (inactive)
same,GI50,SF-539,10.8 µM (inactive)
same,GI50,SK-OV-3,45.5 µM (inactive)
same,GI50,SF-268,23.3 µM (inactive)
same,GI50,OVCAR-3,42.4 µM (inactive)
same,GI50,EKVX,35.2 µM (inactive)
same,GI50,HCT-15,31.8 µM
same,GI50,SK-MEL-28,24.7 µM (inactive)
same,GI50,SN12C,32.8 µM (inactive)
same,GI50,HCT-116,34.8 µM (inactive)
same,GI50,SK-MEL-5,22.7 µM (inactive)
same,GI50,OVCAR-8,27.7 µM (inactive)
O=C1CC(c2ccccc2)NCCCCN2CC(CN1)C(C(O)c1ccccc1)C2=O (stereo not given),GI50,OVCAR-5,> 100 µM (inactive)
same,GI50,RXF 393,> 100 µM (inactive)
same,GI50,U-251,> 100 µM (inactive)
same,GI50,NCI-H522,> 100 µM (inactive)
same,GI50,MDA-MB-435,> 100 µM (inactive)
same,GI50,IGROV-1,> 100 µM (inactive)
same,GI50,ACHN,> 100 µM (inactive)
same,GI50,DU-145,> 100 µM (inactive)
same,GI50,HOP-62,> 100 µM (inactive)
same,GI50,CCRF-CEM,> 100 µM (inactive)
same,GI50,MOLT-4,> 100 µM (inactive)
same,GI50,UACC-257,> 100 µM (inactive)
same,GI50,T47D,> 100 µM (inactive)
same,GI50,SW-620,> 100 µM (inactive)
same,GI50,A549,> 100 µM (inactive)
same,GI50,HT-29,> 100 µM (inactive)
same,GI50,SR,> 100 µM (inactive)
same,GI50,NCI/ADR-RES,> 100 µM (inactive)
same,GI50,TK-10,> 100 µM (inactive)
same,GI50,SNB-19,> 100 µM (inactive)
same,GI50,786-0,> 100 µM (inactive)
same,GI50,MCF7,> 100 µM (inactive)
same,GI50,SNB-75,95.5 µM (inactive)
same,GI50,OVCAR-4,> 100 µM (inactive)
same,GI50,M14,> 100 µM (inactive)
same,GI50,KM12,> 100 µM (inactive)
same,GI50,SK-MEL-2,> 100 µM (inactive)
same,GI50,NCI-H226,> 100 µM (inactive)
same,GI50,NCI-H23,> 100 µM (inactive)
same,GI50,MDA-N,> 100 µM (inactive)
same,GI50,Hs-578T,> 100 µM (inactive)
same,GI50,HOP-92,> 100 µM (inactive)
same,GI50,BT-549,> 100 µM (inactive)
same,GI50,LOX IMVI,> 100 µM (inactive)
same,GI50,UO-31,> 100 µM (inactive)
same,GI50,PC-3,> 100 µM (inactive)
same,GI50,NCI-H460,> 100 µM (inactive)
same,GI50,HL-60,> 100 µM (inactive)
same,GI50,MDA-MB-231,> 100 µM (inactive)
same,GI50,SF-295,> 100 µM (inactive)
same,GI50,Malme-3M,> 100 µM (inactive)
same,GI50,UACC-62,> 100 µM (inactive)
same,GI50,COLO 205,> 100 µM (inactive)
same,GI50,HCC 2998,> 100 µM (inactive)
same,GI50,CAKI-1,> 100 µM (inactive)
same,GI50,A498,> 100 µM (inactive)
same,GI50,SF-539,> 100 µM (inactive)
same,GI50,SK-OV-3,> 100 µM (inactive)
same,GI50,SF-268,> 100 µM (inactive)
same,GI50,OVCAR-3,> 100 µM (inactive)
same,GI50,EKVX,> 100 µM (inactive)
same,GI50,HCT-15,> 100 µM
same,GI50,SK-MEL-28,> 100 µM (inactive)
same,GI50,SN12C,> 100 µM (inactive)
same,GI50,HCT-116,> 100 µM (inactive)
same,GI50,SK-MEL-5,> 100 µM (inactive)
same,GI50,OVCAR-8,> 100 µM (inactive)
